The assay concerns Ba/F3 cells transfected with T315I BCR-ABL. Nature of the assay: BCR-ABL phospho-ELISA in T315I cells or Ba/F3 T315I proliferation (XTT). The format is cell-based. As to conditions: Mus musculus, BaF3, phospho-ELISA or 72 h XTT proliferation, read-out: P_ELISA_[T3151l_Cells] or Ba/F3 T315l proliferation (XTT). How it is done:
MV4-11 and THP cells were maintained in Iscove's Modified Dulbecco's Medium supplemented with 10% fetal bovine serum (FBS) and penicillin/streptomycin, Ba/F3 cells were maintained in RPMI 1640 supplemented with 10% FBS, penicillin/streptomycin and 5 ng/ml recombinant mouse IL-3.
Compounds were tested in the following assays in duplicate.
96-well XTT assay: Cells were grown in growth media containing various concentrations of compounds (duplicates) on a 96-well plate for 72 hours at 37° C. The starting cell number was 5000-8000 cells per well and volume was 120 μl. At the end of the 72-hour incubation, 40 μl of XTT labeling mixture (50:1 solution of sodium 3′-[1-(phenylamino-carbonyl)-3,4-tetrazolium]-bis(4-methoxy-6-nitro) benzene sulfonic acid hydrate and Electron-coupling reagent: PMS (N-methyl dibenzopyrazine methyl sulfate) were added to each well of the plate. After an additional 2-6 hours of incubation at 37° C., the absorbance reading at 405 nm with background correction at 650 nm was measured with a spectrophotometer.
BCR-ABL Phospho-ELISA Assay
Cells (Ba/F3 cells transfected with WT BCR-ABL, other kinases, or T315I, Y253F, or other mutant forms of BCR-ABL) were grown in the absence of IL-3 at least ½ week before the assay. The day before assay, the cells were fed with fresh media so that at the time of assay the cells were in log phase. Ba/F3 cells that had been grown in the absence of IL-3 for at least ½ week were resuspended in RPMI 1640 so that each well of a 96-well plate would contain approximately 200,000 cells. Cells were distributed in a 96-well plate containing serially diluted concentrations of test compounds. Cells were typically incubated with or without test compounds for 60-120 minutes at 5% CO2, 37° C. The incubation was performed with or without other additives such as 10% FCS or 50% human plasma. After incubation of compounds, lysis buffer was added and incubated for 10-15 minutes; the lysate was cleared by centrifugation.
To make the ELISA plate, commercially available Anti-ABL antibodies (e.g. (Ab-3, Calbiochem OP20) were prepared at a concentration of 0.125 μg/ml in coating buffer (0.1M Na-carbonate, pH 9.5), and plated at 10 ml per plate ([…] 100 μg/ml Ab/10 ml). In a high binding multi-well plate, 100 μl Ab in coating buffer were added to each well, and each plate was covered with a plate seal and incubated overnight at 4° C.
Excess antibody was removed and the ELISA plate was washed 3-4 times with 200 μl of wash buffer (0.05% Tween in PBS, pH 7.4). 150 μl of lysate (see above) were transferred to the ELISA plate. Plates were sealed and incubated 2 hours at room temperature. The detection antibody (e.g. HRP conjugated anti-pTyr or unconjugated α-p-Y 4G10, Upstate) was prepared in assay diluent. The antibody was diluted 1:1000 (stock=2 μg/μl, 200 μg in 100 μl; f.c.=2 μg/ml) in assay diluent and 10 ml of diluted antibody per plate were added. The lysate was removed from the ELISA plates, and wells were washed four times with 200 μl of wash buffer per well. 100 μl of detection antibody was added to each well; the plate was covered, and incubated 1 hr at room temperature (21° C.). Excess detection antibody was removed from the ELISA plates, and the wells were washed four times with 200 μl of wash buffer per well.
If necessary, (i.e. for unconjugated anti-pTyr antibody) secondary antibody (goat anti-rabbit HRP) was diluted 1:3000 in assay diluent (3.33 μl per 10 ml diluent) and added at 10 ml of diluted antibody per plate. Excess secondary antibody was removed from the ELISA plate, and the plate was washed four times with 200 μl per well of wash buffer.
Substrate Reagent A and Substrate Reagent B (Pierce Cat#37070 SuperSignal ELISA Pico Chemiluminescent Substrate) were added immediately before use (10 ml resultant solution per plate). 100 μl substrate were added per well, mixed for 1 minute, and chemiluminescent signal was measured with a luminometer.
(In general: An ELISA detects its analyte on a solid surface through an enzyme-linked reagent.)

Take `O=C(c1cccc(-c2cnc3[nH]nc(-c4cccc5cccnc45)c3c2)c1)N1CCOCC1`: the IC50 is < 1 µM. Consider `COc1ccccc1-c1n[nH]c2ncc(-c3cccc(S(=O)(=O)NC4CC4)c3)cc12`, for which the IC50 is < 1 µM. With `c1ccc(-c2n[nH]c3ncc(-c4cccnc4)cc23)cc1` the figure was > 10 µM; with `COc1ccccc1-c1n[nH]c2ncc(-c3ccc(C(=O)NC4CC4)cc3)cc12`, < 1 µM. For `c1ccc(-c2n[nH]c3ncc(-c4ccc5[nH]ccc5c4)cc23)cc1`, the IC50 fell in the range of 1 to 10 µM. With `COc1ccccc1-c1n[nH]c2ncc(-c3cccnc3)cc12` the figure was 1 to 10 µM; with `CCOc1ccccc1-c1n[nH]c2ncc(-c3cccc(C(=O)N4CCOCC4)c3)cc12`, 1 to 10 µM. Turning to `CCN1CCN(C(=O)c2cccc(-c3cnc4[nH]nc(-c5cc(F)ccc5OC)c4c3)c2)CC1`, the IC50 was < 1 µM. Take `Cc1ccsc1-c1n[nH]c2ncc(-c3cccc(C(=O)N4CCOCC4)c3)cc12`: the IC50 was < 1 µM.

Turning to `COc1ccccc1-c1n[nH]c2ncc(-c3ccc(C(=O)N4CCOCC4)cc3)cc12`, the IC50 was in the range of 1 to 10 µM.

Turning to `COc1cc(-c2cnc3[nH]nc(-c4ccccc4)c3c2)ccc1O`, the IC50 was 1 to 10 µM. For `COc1ccccc1-c1n[nH]c2ncc(-c3cccc(C(=O)N(C)C)c3)cc12`, the IC50 is < 1 µM. For the compound `COc1cc(-c2cnc3[nH]cc(-c4ccc(C)cc4)c3n2)ccc1O`, the IC50 is < 1 µM.

As for `COc1ccccc1-c1n[nH]c2ncc(-c3ccc(C(=O)N4CCCC4)cc3)cc12`, the IC50 lay within 1 to 10 µM. As for `Oc1cccc(-c2cnc3[nH]nc(-c4ccccc4)c3c2)c1`, the IC50 is < 1 µM. Take `Cc1cc(F)ccc1-c1n[nH]c2ncc(-c3cccc(C(=O)N4CCOCC4)c3)cc12`: the IC50 fell in the range of 1 to 10 µM. As to `COc1ccccc1-c1n[nH]c2ncc(-c3cccc(C(=O)N4CCC(CO)CC4)c3)cc12`, the IC50 was < 1 µM. Turning to `COc1ccccc1-c1cnc2[nH]nc(-c3ccccc3OC)c2c1`, the IC50 lay in the range of 1 to 10 µM. `COc1ccccc1-c1c[nH]c2ncc(-c3cccc(C(=O)N(C)C)c3)nc12`: the IC50 is > 10 µM.

Consider `COc1c(F)cccc1-c1n[nH]c2ncc(-c3cccc(C(=O)N4CCOCC4)c3)cc12`, for which the IC50 is < 1 µM. With `COc1ncc(-c2n[nH]c3ncc(-c4cccc(C(=O)N5CCOCC5)c4)cc23)c(OC)n1`, the IC50 fell in the range of 1 to 10 µM. Under `O=C(c1cccc(-c2cnc3[nH]nc(-c4ccncc4Cl)c3c2)c1)N1CCOCC1` stands 1 to 10 µM; under `COc1ccccc1-c1n[nH]c2ncc(-c3ccc(C(=O)N4CCN(C)CC4)cc3)cc12`, < 1 µM; under `COc1ccccc1-c1n[nH]c2ncc(-c3cccc(C(=O)NC(C)C)c3)cc12`, 1 to 10 µM. Consider `COc1ccccc1-c1n[nH]c2ncc(Br)cc12`, for which the IC50 is 1 to 10 µM.

Take `CCc1ccccc1-c1n[nH]c2ncc(-c3cccc(C(=O)N4CCOCC4)c3)cc12`: the IC50 was < 1 µM. On to `COc1ccccc1-c1n[nH]c2ncc(-c3cnc4[nH]n(C)c(=O)c4c3)cc12`, for which the IC50 was 1 to 10 µM. Under `COc1ccccc1-c1n[nH]c2ncc(-c3cccc(C(=O)N4CCN(C)CC4)c3)cc12` stands < 1 µM. As for `O=C(c1cccc(-c2cnc3[nH]nc(-c4ccc5cc[nH]c5c4)c3c2)c1)N1CCOCC1`, the IC50 was in the range of 1 to 10 µM. For the compound `COc1ccccc1-c1n[nH]c2ncc(-c3cccc(C(=O)N4CCN(CCN(C)C)CC4)c3)cc12`, the IC50 is < 1 µM.

Turning to `COc1ccccc1-c1n[nH]c2ncc(-c3cccc(C(=O)N4CCCC4)c3)cc12`, the IC50 was < 1 µM. With `COc1ccccc1-c1n[nH]c2ncc(-c3ccc(O)c(C(=O)N4CCOCC4)c3)cc12` the figure was < 1 µM; with `Cn1ccc2cc(-c3n[nH]c4ncc(-c5cccc(C(=O)N6CCOCC6)c5)cc34)ccc21`, 1 to 10 µM.

For the origin of these results see patent US7626021B2, “Fused ring heterocycle kinase modulators” (SGX Pharmaceuticals, Inc., priority 2004, dated 2009).
